From patent US9718799B2, “3-aryl-4H-chromene-4-ones as antineoplastic agents for the treatment of cancer” (The University of Kentucky Research Foundation, priority 2015, dated 2017)

What was measured:
[1] = system: PC3 prostate cancer cells; assay: Cell proliferation assay in prostate cancer PC3 cells; assay type: cell-based; conditions: Homo sapiens, PC-3
Method: Cell Proliferation Assay:
PC3 prostate cancer cells were cultured in DMEM/F-12 HAM Mixture (Sigma D8437), 10% Fetal Bovine Serum (Atlanta Biological S11150). Before the treatment, 3.5×10^4 cells per well were split into 12-well plates. After 24 h, 10 μM of each compound was added to each well. DMSO was used as a control. This experiment was done in triplicate. Cell viability and number were analyzed using Vi-Cell XR Cell Viability Analyzer (Beckman Coulter).

P388 leukemia cells = conditions: cited from earlier work
[2] = system: PC3 prostate cancer cells; assay: Cell proliferation assay in prostate cancer PC3 cells; assay type: cell-based
[3] = system: different cancer cell lines; conditions: cited from earlier work

Structure (SMILES)	melting point	inhibition at 10 µM [1]	further results
COc1ccc(-c2coc3c4c(ccc3c2=O)OC2OCCCC2C4)cc1 (centres unmarked) [Isoflavonoid 21a, 3-(4-Methoxyphenyl)-10,11,11a,12-tetrahydro-4H,7aH,9H-dipyrano[2,3-b:2′,3′-f]chromen-4-one]	182 to 183 °C	73 ± 6%	–
COc1ccc(-c2coc3c4c(ccc3c2=O)OC2OCCCC2C4)cc1OC (centres unmarked) [Isoflavonoid 21b, 3-(3,4-Dimethoxyphenyl)-10,11,11a,12-tetrahydro-4H,7aH,9H-dipyrano[2,3-b:2′,3′-f]chromen-4-one]	177 to 178 °C	35 ± 10%	–
COCc1c(OC)cc(O)c2c(=O)c(-c3ccc(OC)cc3)coc12 [Isoflavonoid 11b, 5-Hydroxy-7-methoxy-8-(methoxymethyl)-3-(4-methoxyphenyl)-4H-chromen-4-one]	126 to 128 °C	96.8 ± 0.8%	–
COc1ccc(-c2c(C)oc3c4c(ccc3c2=O)OC2OCCCC2C4)cc1 (centres unmarked) [Isoflavonoid 21g, 3-(4-Methoxyphenyl)-2-methyl-10,11,11a,12-tetrahydro-4H,7aH,9H-dipyrano[2,3-b:2′,3′-f]chromen-4-one]	199 to 200 °C	62%	–
O=c1c(-c2ccc(Cl)cc2)coc2c3c(ccc12)OC1OCCC1C3 (centres unmarked) [Isoflavonoid 20e, 3-(4-Chlorophenyl)-9,10,10a,11-tetrahydro-4H,7aH-furo[2,3-b]pyrano[2,3-f]chromen-4-one]	194 to 195 °C	63 ± 10%	–
COCc1c(OC)cc2occ(-c3ccccc3OC)c(=O)c2c1O [Isoflavonoid 10a, 5-Hydroxy-7-methoxy-6-(methoxymethyl)-3-(2-methoxyphenyl)-4H-chromen-4-one]	123 to 124 °C	53.4 ± 8%	–
O=c1c(-c2ccc3c(c2)OCCO3)coc2c3c(ccc12)OC1OCCCC1C3 (centres unmarked) [Isoflavonoid 21d, 3-(2,3-Dihydro-1,4-benzodioxin-6-yl)-10,11,11a,12-tetrahydro-4H,7aH,9H-dipyrano[2,3-b:2′,3′-f]chromen-4-one]	160 to 162 °C	48 ± 3%	–
O=c1c(-c2ccc3c(c2)OCO3)coc2c3c(ccc12)OC1OCCC1C3 (centres unmarked) [Isoflavonoid 20c, 3-(1,3-Benzodioxol-5-yl)-9,10,10a,11-tetrahydro-4H,7aH-furo[2,3-b]pyrano[2,3-f]chromen-4-one]	203 to 205 °C	47 ± 4%	–
COCc1c(OC)cc(O)c2c(=O)cc(C)oc12 [8-(methoxymethyl)eugenin]	–	–	cytotoxicity (P388 leukemia cells): moderate cytotoxicity
COc1ccc(-c2c(C)oc3c4c(ccc3c2=O)OC2(O)CCCCC2C4)cc1 (centres unmarked) [Isoflavonoid 24g, 7a-Hydroxy-3-(4-methoxyphenyl)-2-methyl-8,9,10,11,11a,12-hexahydro-4H,7aH-pyrano[2,3-a]xanthen-4-one]	212 to 213 °C	78 ± 1%	–
COc1ccc(-c2coc3c(C)c4c(cc3c2=O)CC2CCOC2O4)cc1 (centres unmarked) [Isoflavonoid 25a, 3-(4-Methoxyphenyl)-11-methyl-6a,7,8,9a-tetrahydro-4H,6H-furo[2,3-b]pyrano[3,2-g]chromen-4-one]	155 to 157 °C	78 ± 3%	–
COc1ccc(-c2coc3c4c(ccc3c2=O)OC2(O)CCCCC2C4)cc1OC (centres unmarked) [Isoflavonoid 24b, 3-(3,4-Dimethoxyphenyl)-7a-hydroxy-8,9,10,11,11a,12-hexahydro-4H,7aH-pyrano[2,3-a]xanthen-4-one]	214 to 216 °C	56 ± 5%	–
COc1ccc(-c2coc3c(COC(C)=O)c(OC(C)=O)ccc3c2=O)cc1 [Isoflavonoid 7d, 7-(Acetoxy)-8-(acetoxymethyl)-3-(4-methoxyphenyl)-4H-chromen-4-one]	–	99.2 ± 0.4%	potency at 1 µM concentration ([2]; 1 µM concentration): retained potency
COCc1c(O)ccc2c(=O)c(-c3ccc(OC)cc3)coc12 [Isoflavonoid 11d, 7-Hydroxy-8-(methoxymethyl)-3-(4-methoxyphenyl)-4H-chromen-4-one]	167 to 169 °C (dec.)	34.9 ± 3.3%	–
O=c1c(-c2ccc(O)cc2)coc2cc(O)cc(O)c12 [genistein (B), genistein]	–	–	IC50 [3]: 15 to 100 µM
COc1ccc(-c2c(C)oc3c(CO)c(O)ccc3c2=O)cc1 [Isoflavonoid 9e, 7-Hydroxy-8-(hydroxymethyl)-3-(4-methoxyphenyl)-2-methyl-4H-chromen-4-one]	212 to 214 °C (dec.)	99.5 ± 0.5%	–
COc1ccc(-c2coc3cc(OC)c(CO)c(O)c3c2=O)cc1 [Isoflavonoid 8b, 5-Hydroxy-6-(hydroxymethyl)-7-methoxy-3-(4-methoxyphenyl)-4H-chromen-4-one]	138 to 139 °C	0%	–
COc1ccc(-c2coc3c4c(ccc3c2=O)OC2=C(C4)C(=O)CC(C)(C)C2)cc1OC [Isoflavonoid 22b, 3-(3,4-Dimethoxyphenyl)-9,9-dimethyl-8,9,10,12-tetrahydro-4H,11H-pyrano[2,3-a]xanthene-4,11-dione]	196 to 198 °C	86 ± 1%	inhibition at 1 µM ([2]; Homo sapiens, PC-3, 1 μM): 31%; inhibition at 10 µM ([1]; PC3 cells, 10 μM): 86%
COc1ccc(-c2coc3c4c(ccc3c2=O)OC2OCCC2C4)cc1 (centres unmarked) [Isoflavonoid 20a, 3-(4-Methoxyphenyl)-9,10,10a,11-tetrahydro-4H,7aH-furo[2,3-b]pyrano[2,3-f]chromen-4-one]	201 to 202 °C	62 ± 7%	–
COc1ccc(-c2coc3c(CO)c(O)ccc3c2=O)cc1 [Isoflavonoid 9d, 7-Hydroxy-8-(hydroxymethyl)-3-(4-methoxyphenyl)-4H-chromen-4-one]	150 to 152 °C (dec.)	99.5 ± 0.2%	–
COc1ccc(-c2c(C)oc3c(COC(C)=O)c(OC(C)=O)ccc3c2=O)cc1 [Isoflavonoid 7e, 7-(Acetoxy)-8-(acetoxymethyl)-3-(4-methoxyphenyl)-2-methyl-4H-chromen-4-one]	142 to 144 °C	98.2 ± 1.5%	–
COc1ccc(-c2coc3c4c(ccc3c2=O)OC2(O)CCCCC2C4)cc1 (centres unmarked) [Isoflavonoid 24a, 7a-Hydroxy-3-(4-methoxyphenyl)-8,9,10,11,11a,12-hexahydro-4H,7aH-pyrano[2,3-a]xanthen-4-one]	222 to 223 °C	30 ± 15%	–
